Source: US20260274828A1, “BROAD SPECTRUM ANTIFUNGAL KETO-ALKYL-PYRIDINIUM COMPOUNDS” (priority 2023, published 2026)
Where two headings read alike, the source gives them in different places.

Experiments:
A. fumigatus = experiment: Planktonic MIC, CLSI guidelines; type: cell-based; details: Aspergillus fumigatus, read-out: MIC
Method: (§1) Minimum inhibitory concentrations were determined using CLSI guidelines (Beattie & Krysan, 2021; Wiederhold, 2021). All yeasts were cultured overnight in 3 mL YPD at 30° C., then washed twice in sterile PBS. Two-fold serial dilutions of each compound were prepared in RMPI+MOPS pH 7 (Gibco RPMI 1640 with L-glutamine [11875-093] and 0.165M 352 MOPS), then 1×10^3 cells were added per well. Plates were incubated at 37° C. for 24 hours (C. albicans and S. cerevisiae) or 72 hours (C. neoformans). For A. fumigatus and F. oxysporum wells were inoculated with 1.25×10^4 conidia. Plates were incubated at 37° C. for 48 hours for A. fumigatus and 72 hours for F. oxysporum. All MICs are defined as the well with complete growth inhibition as determined by visual inspection with the exception of MICs of fluconazole against C. albicans where the MIC is defined as at least 50% reduction in growth compared to the control.

C. glabrata = experiment: Planktonic MIC, CLSI guidelines; type: cell-based; details: Nakaseomyces glabratus; strain KK2001
Method: as §1

C. neoformans = experiment: Planktonic MIC, CLSI guidelines; type: cell-based; details: Cryptococcus neoformans
Method: as §1

F. oxysporum = experiment: Planktonic MIC, CLSI guidelines; type: cell-based; details: Fusarium oxysporum; strain DUMC Fo
Method: as §1

P. aeruginosa = experiment: Antibacterial MIC; type: cell-based, Pseudomonas aeruginosa
C. albicans = experiment: Checkerboard assay with clinical antifungals (FICI); type: cell-based, Candida albicans; details: with fluconazole
Method: To determine if compounds interacted with clinically used antifungal drugs, checkerboard assays were performed and fractional inhibitory concentration indices were determined. […] The FICI for compound B and fluconazole is 8.25 due to the 8-fold increase in fluconazole concentration in the combination; however, the concentration of compound B at FIC is reduced by 4-fold relative to compound B as a single agent (Table 3).

[1] = test system: C. albicans SC5314 biofilms; experiment: Biofilm phase antifungal activity assay (XTT reduction); type: cell-based, Candida albicans
Method: (§2) These assays were performed as previously described (Mao et al., 2020; Ramage et al., 2001). C. albicans and C. auris, overnight cultures were washed in sterile PBS and adjusted to 1×10^6 CFU/mL in RPMI+MOPS pH 7. 100 μL cells were added to each well and incubated at 37° C. for 24 hours. A two-fold dilution series of the compounds was prepared in RPMI+MOPS with equal vehicle concentrations. Media was removed and biofilms were gently washed with PBS, then 200 μL of each drug dilution was added to wells and plates were incubated at 37° C. for an additional 24 hours. Media was removed and biofilms were gently washed with PBS, then 100 μL of XTT solution (0.83 mg/mL XTT sodium salt [Sigma, Cat #X4626]+32 μg/mL PMS [Sigma, Cat #P9625] in PBS) was added to each well. Plates were incubated at 37° C. for 30 minutes, then the absorbance was measured at 490 nm.
(§3) The metabolic activity of the biofilms was then assayed using the standard XXT reduction assay (Ramage et al., 2001). […] The biofilm activity of compound A was reduced by 4-fold relative to planktonic growth (MIC 4 μg/mL, Table 2).

C. auris = experiment: Ex vivo porcine skin model of Candida auris colonization
Method: The collection of porcine skin samples was conducted under protocols approved by the University of Wisconsin-Madison Institutional Animal Care and Use Committee in accordance with published National Institutes of Health (NIH) and United States Department of Agriculture (USDA) guidelines. Excised skin was cleaned and shaved as described previously (Johnson et al., 2022). Full-thickness samples were obtained by 12 mm punch and placed in 12-well plates containing 3 mL Dulbecco's Modified Eagle Medium (DMEM) (Lonza, Walkersville, MD, USA) supplemented with 10% fetal bovine serum (FBS) (Atlanta biologicals, Lawrenceville, GA, USA), penicillin (1,000 U/mL), and streptomycin (1 mg/mL) (Corning, Manassas, VA, USA) for 6 hours. Tissues were rinsed in DBPS and moved to semi-solid media (6:4 ratio of 1% agarose (BIO-RAD, Hercules, CA, USA) in DPBS:DMEM with 10% FBS). Paraffin wax was applied around the edge of the skin and 10 μL C. auris suspended in synthetic sweat medium at 10^7 cells/mL was applied. Samples were incubated at 24 hours and compound A (8 μg/mL or 16 μg/mL) in synthetic sweat medium was applied. After 24 hours a sterile swab was used to remove compound from skin surface. Samples were vortexed in DPBS and plated on YPD+chloramphenicol to assess viable burden.

C. auris 0381 biofilms = experiment: Biofilm phase antifungal activity assay (XTT reduction); type: cell-based, Candida auris
Method: as §2, §3

`Nc1cc[n+](CC(=O)c2ccc3c(c2)OC(c2ccccc2)(c2ccccc2)O3)cc1.[Cl-]` [Compound A] was tested, and the MIC (A. fumigatus; strain AF293) was 2 µg/mL, the MIC (A. fumigatus; strain CEA10) was 32 µg/mL and the MIC (A. fumigatus; strain CFF S001) was 64 µg/mL. It also gave an MIC (A. fumigatus; strain CFF S003) of 4 µg/mL, an MIC (A. fumigatus; strain CFF S007) of 64 µg/mL and an MIC (A. fumigatus; strain CFF S008) of 64 µg/mL. It also gave an MIC (A. fumigatus; strain CFF S014) of 8 µg/mL, an MIC (A. fumigatus; strain CFF S029) of 4 µg/mL and an MIC (A. fumigatus; strain Cas^R) of 32 µg/mL. It also gave an MIC (A. fumigatus; strain SPF98) of 64 µg/mL, an MIC (C. glabrata) of 4 µg/mL and an MIC (C. neoformans; strain DUMC 118.00) of 4 µg/mL. It also gave an MIC (C. neoformans; strain DUMC 122.01) of 4 µg/mL, an MIC (C. neoformans; strain H99) of 4 µg/mL and an MIC (F. oxysporum) of 16 µg/mL. For the same molecule, the “activity compared to cetylpyridinium chloride” value (P. aeruginosa; P. aeruginosa) was “more active”, the MIC (P. aeruginosa; Pseudomonas aeruginosa, strain PAO1) was 64 µg/mL and the “interaction with clinical antifungal” value (C. albicans) was “antagonistic”. For the same molecule, the IC50 ([1]; Candida albicans, SC5314, established 24 h biofilm, treated 24 h, XTT, read-out: biofilm metabolic activity IC50) was 18.4 µg/mL, the “reduction of biofilm activity relative to planktonic growth” value ([1]; IC50 versus planktonic MIC) was 4 fold and the “reduction of fungal burden of colonized porcine skin” value (C. auris; 8 μg/mL, 24 hours after a single treatment) was “about 1 log10”. For the same molecule, the “fungal burden of colonized porcine skin” value (C. auris; 16 μg/mL versus 8 μg/mL, 24 hours) was “not reduced further”, the “reduction of C. auris colonization of skin” value (C. auris; 8 or 16 μg/mL, 24 hours) was “about 1 log10 CFU” and the “activity during planktonic and inanimate-substrate biofilm growth” value (C. auris 0381 biofilms) was “comparable activity”.
